{"source": "paper PMC5578373", "about": "“Inhibitory Kappa B Kinase α (IKKα) Inhibitors That Recapitulate Their Selectivity in Cells against Isoform-Related Biomarkers” (Journal of Medicinal Chemistry, 2017)", "key": {"[1]": {"test_system": "IKKβ-dependent IκBα degradation in U2OS cells", "experiment": "TNFα-induced IκBα degradation in U2OS cells, Western blot", "assay_type": "cell-based, human", "conditions": "highest concentration 100 μM, TNF-α (10 ng/mL) 30 min", "protocol": "(§1) Two IKKβ-dependent readouts were selected to assess selectivity over IKKβ. First, TNFα stimulates IκBα degradation through activation of IKKβ and if IKKβ is inhibited, then a band corresponding to the IκBα protein should be evident by Western analysis. Second, IKKβ phosphorylates p65 on Ser536, which can also be assessed by Western blot analysis. Only at the highest concentration (100 μM) of 48 was IκBα degradation and p65 (Ser536) phosphorylation inhibited (Figure 9b). Even at this high concentration, these effects were not apparent following pretreatment with 47 (Figure 10b).\n(§2) Figure 9 Effect of compound 48 on (a) FCS-stimulated noncanonical and (b) TNF-α-induced canonical NF-kB activation in U2OS cells. […] Whole cell lysate were prepared, separated by SDS-PAGE, and assessed for (a) inhibition of p100 phosphorylation (Ser866/870) and (b) IkB-α and p-p65 (Ser536) status. […]\nas §2, with “10” for “9”, “47” for “48”\n(§3) Whole cell lysates were prepared from U2OS and status of IκBα, p65, p-p65 (Ser536), and p-p100 (Ser 866/870) assessed by Western blotting as described in Mackenzie et al. (2007).[46]"}, "[2]": {"test_system": "IKKβ-dependent p65 (Ser536) phosphorylation in U2OS cells", "experiment": "TNFα-induced p65 (Ser536) phosphorylation in U2OS cells, Western blot", "assay_type": "cell-based, human", "conditions": "highest concentration 100 μM, TNF-α (10 ng/mL) 30 min", "protocol": "as §1, §2\nas §2, with “10” for “9”, “47” for “48”\nas §3"}, "[3]": {"test_system": "IKKα-regulated NF-κB transcriptional activation in IKKβ−/− MEFs", "experiment": "IL-1β-stimulated NF-κB-luciferase transcriptional activity in IKKβ knockout MEFs", "assay_type": "cell-based, mouse", "conditions": "maximal concentrations of 50–100 μM", "protocol": "To provide further evidence for cellular activity, mouse embryonic fibroblasts lacking the IKKβ kinase subunit were utilized to investigate the potency of both compounds against agonist-stimulated IKKα-regulated NF-κB transcriptional activation. Cells were infected with an adenovirus encoding an NF-κB-luciferase promoter gene. NF-κB transcriptional activity driven by IKKα was stimulated specifically using IL-1β,[41] and the ability of the compounds to inhibit this response was assessed. […] As IKKα plays a lesser role in the canonical NF-κB cascade,[42] particularly the rapid and transient stimulated degradation of IκBα, selective IKKα inhibitors should not affect TNF-α induced IκBα degradation and p65 phosphorylation.\nU2OS cells were cultured with McCoy’s 5A modified medium and MEF were cultured with DEME medium containing 10% (v/v) FCS and medium was changed every 2 d thereafter until cells became confluent. Cells were incubated at 37 °C in humidified air with 5% CO2 and rendered quiescent by serum deprivation for 24 h prior to stimulation in serum-free medium.\nAn adenoviral vector encoding NFκB-luciferase (Adv.NFκB-Luc) was purchased from Vector Biolabs (University of Pennsylvania, Philadelphia, US). Large-scale production of high titer recombinant adenovirus was performed by routine methods.[47] IKKβ knockout mouse embryonic fibroblasts (MEFs; kindly provided by Prof. I. Verma, UCSD, USA) were counted when approximately 60–70% confluent in T75 cm^2 flasks and infected with adenovirus up to 300 pfu/cell^–1 for 24 h in 10% DMEM. Cells were then lifted from the flasks and plated into 96-well clear bottom, black luciferase plates and allowed to settle for 24 h before serum starved overnight. Cells were then stimulated with the appropriate agonists for the indicated times and reactions terminated by addition of lysis buffer containing 0.2 mM luciferin substrate. Relative light units (RLU) were measured using a Trilux microbeta counter (luminometer)."}, "CDK2/cyclinA(h)": {"target": "T1, CDK2/cyclinA(h) (Homo sapiens, UniProt P24941)", "T1 construct": "purchased Millipore KinaseProfiler", "experiment": "Millipore Kinase Profiler, single concentration", "assay_type": "biochemical", "conditions": "duplicate assay points, read-out: % residual activity", "description": "(§4) Kinase profiling of compound 48 was outsourced to Millipore, specifically the Kinase Profiler Customer Service for single concentration studies using duplicate assay points."}, "CHK2(h)": {"target": "T2, CHK2(h) (Homo sapiens, UniProt O96017)", "T2 construct": "purchased Millipore KinaseProfiler", "experiment": "Millipore Kinase Profiler, single concentration", "assay_type": "biochemical", "conditions": "duplicate assay points, read-out: % residual activity", "description": "as §4"}, "CaMKIV(h)": {"target": "T3, CaMKIV(h) (Homo sapiens, UniProt Q16566)", "T3 construct": "purchased Millipore KinaseProfiler", "experiment": "Millipore Kinase Profiler, single concentration", "assay_type": "biochemical", "conditions": "duplicate assay points, read-out: % residual activity", "description": "as §4"}, "DAPK1(h)": {"target": "T4, DAPK1(h) (Homo sapiens, UniProt P53355)", "T4 construct": "purchased Millipore KinaseProfiler", "T4 sequence (P53355 whole entry)": "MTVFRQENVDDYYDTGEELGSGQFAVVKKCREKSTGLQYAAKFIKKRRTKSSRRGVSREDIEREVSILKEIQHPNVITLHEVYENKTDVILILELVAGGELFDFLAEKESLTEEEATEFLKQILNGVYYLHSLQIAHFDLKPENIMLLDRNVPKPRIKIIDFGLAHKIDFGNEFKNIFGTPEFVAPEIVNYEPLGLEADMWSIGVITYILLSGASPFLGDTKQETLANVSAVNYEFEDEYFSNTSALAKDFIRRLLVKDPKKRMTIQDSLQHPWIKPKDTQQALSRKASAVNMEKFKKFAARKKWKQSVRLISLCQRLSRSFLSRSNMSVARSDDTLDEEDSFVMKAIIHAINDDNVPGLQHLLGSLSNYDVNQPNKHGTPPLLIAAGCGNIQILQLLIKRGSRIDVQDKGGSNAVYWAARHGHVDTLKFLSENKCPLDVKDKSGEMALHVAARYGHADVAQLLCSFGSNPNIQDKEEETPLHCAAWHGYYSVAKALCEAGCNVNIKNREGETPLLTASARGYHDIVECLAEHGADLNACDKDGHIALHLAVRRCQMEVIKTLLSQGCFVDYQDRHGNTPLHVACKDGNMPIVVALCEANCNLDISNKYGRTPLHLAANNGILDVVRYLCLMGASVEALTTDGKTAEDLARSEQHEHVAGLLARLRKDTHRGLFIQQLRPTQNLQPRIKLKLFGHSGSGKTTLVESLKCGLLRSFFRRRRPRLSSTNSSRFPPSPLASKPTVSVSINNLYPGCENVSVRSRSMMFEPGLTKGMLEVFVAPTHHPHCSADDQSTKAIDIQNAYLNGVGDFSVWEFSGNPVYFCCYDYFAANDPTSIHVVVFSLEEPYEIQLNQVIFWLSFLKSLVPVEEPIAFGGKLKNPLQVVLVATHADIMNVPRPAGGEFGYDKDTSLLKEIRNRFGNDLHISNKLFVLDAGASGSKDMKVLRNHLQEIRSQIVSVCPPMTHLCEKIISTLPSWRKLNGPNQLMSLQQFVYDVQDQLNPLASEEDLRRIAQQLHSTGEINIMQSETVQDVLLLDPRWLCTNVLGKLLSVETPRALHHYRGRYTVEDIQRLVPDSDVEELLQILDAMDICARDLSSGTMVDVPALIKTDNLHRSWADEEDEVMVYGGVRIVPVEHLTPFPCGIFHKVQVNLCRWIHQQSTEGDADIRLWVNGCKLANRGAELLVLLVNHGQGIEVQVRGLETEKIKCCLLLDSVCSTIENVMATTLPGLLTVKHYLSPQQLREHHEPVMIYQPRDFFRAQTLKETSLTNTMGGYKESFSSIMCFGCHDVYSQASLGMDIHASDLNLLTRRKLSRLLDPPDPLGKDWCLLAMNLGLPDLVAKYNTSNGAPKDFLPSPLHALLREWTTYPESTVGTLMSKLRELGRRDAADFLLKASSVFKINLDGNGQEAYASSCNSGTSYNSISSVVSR", "experiment": "Millipore Kinase Profiler, single concentration", "assay_type": "biochemical", "conditions": "duplicate assay points, read-out: % residual activity", "description": "as §4"}, "EGFR(h)": {"target": "T5, EGFR(h) (Homo sapiens, UniProt P00533)", "T5 construct": "purchased Millipore KinaseProfiler", "experiment": "Millipore Kinase Profiler, single concentration", "assay_type": "biochemical", "conditions": "duplicate assay points, read-out: % residual activity", "description": "as §4"}, "EphB4(h)": {"target": "T6, EphB4(h) (Homo sapiens, UniProt P54760)", "T6 construct": "purchased Millipore KinaseProfiler", "experiment": "Millipore Kinase Profiler, single concentration", "assay_type": "biochemical", "conditions": "duplicate assay points, read-out: % residual activity", "description": "as §4"}, "GSK3β(h)": {"target": "T7, GSK3β(h) (Homo sapiens, UniProt P49841)", "T7 construct": "purchased Millipore KinaseProfiler", "experiment": "Millipore Kinase Profiler, single concentration", "assay_type": "biochemical", "conditions": "duplicate assay points, read-out: % residual activity", "description": "as §4"}, "JAK2(h)": {"target": "T8, JAK2(h) (Homo sapiens, UniProt O60674)", "T8 construct": "purchased Millipore KinaseProfiler", "experiment": "Millipore Kinase Profiler, single concentration", "assay_type": "biochemical", "conditions": "duplicate assay points, read-out: % residual activity", "description": "as §4"}, "PKBα(h)": {"target": "T9, PKBα(h) (Homo sapiens, UniProt P31749)", "T9 construct": "purchased Millipore KinaseProfiler", "T9 sequence (P31749 whole entry)": "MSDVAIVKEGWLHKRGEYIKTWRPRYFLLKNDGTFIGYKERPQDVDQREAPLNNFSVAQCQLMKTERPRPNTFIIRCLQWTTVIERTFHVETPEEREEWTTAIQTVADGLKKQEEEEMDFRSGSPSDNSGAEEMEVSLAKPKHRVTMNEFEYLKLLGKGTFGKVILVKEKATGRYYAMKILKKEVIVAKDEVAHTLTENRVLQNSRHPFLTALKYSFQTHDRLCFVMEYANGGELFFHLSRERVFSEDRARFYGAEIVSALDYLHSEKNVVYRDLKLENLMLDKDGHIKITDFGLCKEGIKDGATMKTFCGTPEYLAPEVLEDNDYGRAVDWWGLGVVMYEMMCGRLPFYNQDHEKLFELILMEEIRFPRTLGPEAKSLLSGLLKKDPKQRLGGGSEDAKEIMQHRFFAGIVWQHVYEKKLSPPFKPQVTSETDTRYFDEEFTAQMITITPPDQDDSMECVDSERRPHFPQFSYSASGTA", "experiment": "Millipore Kinase Profiler, single concentration", "assay_type": "biochemical", "conditions": "duplicate assay points, read-out: % residual activity", "description": "as §4"}, "PKCη(h)": {"target": "T10, PKCη(h) (Homo sapiens, UniProt P24723)", "T10 construct": "purchased Millipore KinaseProfiler", "experiment": "Millipore Kinase Profiler, single concentration", "assay_type": "biochemical", "conditions": "duplicate assay points, read-out: % residual activity", "description": "as §4"}, "PKCμ(h)": {"target": "T11, PKCμ(h) (Homo sapiens, UniProt Q15139)", "T11 construct": "purchased Millipore KinaseProfiler", "experiment": "Millipore Kinase Profiler, single concentration", "assay_type": "biochemical", "conditions": "duplicate assay points, read-out: % residual activity", "description": "as §4"}, "PRK2(h)": {"target": "T12, PRK2(h) (Homo sapiens, UniProt Q16513)", "T12 construct": "purchased Millipore KinaseProfiler", "T12 sequence (Q16513 whole entry)": "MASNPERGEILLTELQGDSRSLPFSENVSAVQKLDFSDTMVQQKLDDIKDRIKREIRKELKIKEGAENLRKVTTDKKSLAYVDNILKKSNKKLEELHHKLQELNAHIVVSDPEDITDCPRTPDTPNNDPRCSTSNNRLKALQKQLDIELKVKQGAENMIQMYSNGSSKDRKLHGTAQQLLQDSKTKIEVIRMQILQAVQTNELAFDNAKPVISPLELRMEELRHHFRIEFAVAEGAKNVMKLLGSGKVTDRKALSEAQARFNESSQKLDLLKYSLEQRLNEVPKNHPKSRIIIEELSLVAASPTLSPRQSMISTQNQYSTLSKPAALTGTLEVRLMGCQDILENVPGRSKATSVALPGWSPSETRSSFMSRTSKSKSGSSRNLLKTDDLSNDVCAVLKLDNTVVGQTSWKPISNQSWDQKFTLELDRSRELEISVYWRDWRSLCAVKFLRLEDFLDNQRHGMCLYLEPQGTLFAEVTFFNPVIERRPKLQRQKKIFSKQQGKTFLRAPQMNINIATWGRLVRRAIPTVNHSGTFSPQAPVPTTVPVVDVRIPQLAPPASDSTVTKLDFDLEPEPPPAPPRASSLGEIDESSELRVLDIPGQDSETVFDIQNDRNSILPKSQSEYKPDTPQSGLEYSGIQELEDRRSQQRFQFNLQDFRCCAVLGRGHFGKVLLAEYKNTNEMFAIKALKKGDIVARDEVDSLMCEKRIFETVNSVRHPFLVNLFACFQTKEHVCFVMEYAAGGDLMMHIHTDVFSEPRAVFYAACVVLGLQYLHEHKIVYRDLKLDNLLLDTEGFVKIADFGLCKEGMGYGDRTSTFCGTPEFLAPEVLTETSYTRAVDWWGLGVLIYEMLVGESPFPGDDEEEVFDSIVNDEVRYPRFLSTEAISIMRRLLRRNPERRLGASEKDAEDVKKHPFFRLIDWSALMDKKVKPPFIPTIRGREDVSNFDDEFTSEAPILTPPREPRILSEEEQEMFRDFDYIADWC", "experiment": "Millipore Kinase Profiler, single concentration", "assay_type": "biochemical", "conditions": "duplicate assay points, read-out: % residual activity", "description": "as §4"}, "Rsk1(h)": {"target": "T13, Rsk1(h) (Homo sapiens, UniProt Q15418)", "T13 construct": "purchased Millipore KinaseProfiler", "T13 sequence (Q15418 whole entry)": "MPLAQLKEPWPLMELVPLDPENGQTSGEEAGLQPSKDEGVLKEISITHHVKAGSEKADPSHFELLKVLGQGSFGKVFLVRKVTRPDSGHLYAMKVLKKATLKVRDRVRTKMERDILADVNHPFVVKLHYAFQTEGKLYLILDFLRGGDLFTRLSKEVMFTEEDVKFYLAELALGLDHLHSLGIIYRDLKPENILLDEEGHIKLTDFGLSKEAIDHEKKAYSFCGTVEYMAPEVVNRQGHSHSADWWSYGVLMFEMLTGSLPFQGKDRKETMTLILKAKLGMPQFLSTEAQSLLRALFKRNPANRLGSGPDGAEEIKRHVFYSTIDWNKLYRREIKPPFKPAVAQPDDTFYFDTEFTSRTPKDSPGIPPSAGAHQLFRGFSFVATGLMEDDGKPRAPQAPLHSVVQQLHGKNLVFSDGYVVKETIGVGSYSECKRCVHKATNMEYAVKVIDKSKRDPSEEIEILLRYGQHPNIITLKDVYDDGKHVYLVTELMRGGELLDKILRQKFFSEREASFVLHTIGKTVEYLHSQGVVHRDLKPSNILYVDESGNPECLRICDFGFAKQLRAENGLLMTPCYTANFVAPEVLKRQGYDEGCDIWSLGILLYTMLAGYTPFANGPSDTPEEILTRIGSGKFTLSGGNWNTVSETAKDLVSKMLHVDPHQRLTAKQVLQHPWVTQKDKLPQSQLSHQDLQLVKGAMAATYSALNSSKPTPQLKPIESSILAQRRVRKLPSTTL", "experiment": "Millipore Kinase Profiler, single concentration", "assay_type": "biochemical", "conditions": "duplicate assay points, read-out: % residual activity", "description": "as §4"}, "TBK1(h)": {"target": "T14, TBK1(h) (Homo sapiens, UniProt Q9UHD2)", "T14 construct": "purchased Millipore KinaseProfiler", "experiment": "Millipore Kinase Profiler, single concentration", "assay_type": "biochemical", "conditions": "duplicate assay points, read-out: % residual activity", "description": "as §4"}, "TrkB(h)": {"target": "T15, TrkB(h) (Homo sapiens, UniProt Q16620)", "T15 construct": "purchased Millipore KinaseProfiler", "experiment": "Millipore Kinase Profiler, single concentration", "assay_type": "biochemical", "conditions": "duplicate assay points, read-out: % residual activity", "description": "as §4"}, "ZAP-70(h)": {"target": "T16, ZAP-70(h) (Homo sapiens, UniProt P43403)", "T16 construct": "purchased Millipore KinaseProfiler", "T16 sequence (P43403 whole entry)": "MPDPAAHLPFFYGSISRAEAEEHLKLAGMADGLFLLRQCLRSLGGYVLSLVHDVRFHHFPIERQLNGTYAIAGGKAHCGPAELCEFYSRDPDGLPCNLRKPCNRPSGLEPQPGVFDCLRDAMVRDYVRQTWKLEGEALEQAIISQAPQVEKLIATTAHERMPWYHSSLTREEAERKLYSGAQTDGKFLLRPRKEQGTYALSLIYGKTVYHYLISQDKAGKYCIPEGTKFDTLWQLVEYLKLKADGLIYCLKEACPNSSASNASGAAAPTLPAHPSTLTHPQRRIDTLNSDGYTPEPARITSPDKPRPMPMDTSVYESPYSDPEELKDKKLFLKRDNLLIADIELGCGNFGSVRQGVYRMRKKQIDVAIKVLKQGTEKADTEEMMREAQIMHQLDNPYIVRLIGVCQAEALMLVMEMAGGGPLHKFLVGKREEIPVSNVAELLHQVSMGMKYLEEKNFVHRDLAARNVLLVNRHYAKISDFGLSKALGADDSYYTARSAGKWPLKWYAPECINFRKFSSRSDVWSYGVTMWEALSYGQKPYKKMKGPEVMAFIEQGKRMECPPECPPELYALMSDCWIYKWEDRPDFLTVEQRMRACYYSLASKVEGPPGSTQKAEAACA", "experiment": "Millipore Kinase Profiler, single concentration", "assay_type": "biochemical", "conditions": "duplicate assay points, read-out: % residual activity", "description": "as §4"}, "cSRC(h)": {"target": "T17, cSRC(h) (Homo sapiens, UniProt P12931)", "T17 construct": "purchased Millipore KinaseProfiler", "T17 sequence (P12931 whole entry)": "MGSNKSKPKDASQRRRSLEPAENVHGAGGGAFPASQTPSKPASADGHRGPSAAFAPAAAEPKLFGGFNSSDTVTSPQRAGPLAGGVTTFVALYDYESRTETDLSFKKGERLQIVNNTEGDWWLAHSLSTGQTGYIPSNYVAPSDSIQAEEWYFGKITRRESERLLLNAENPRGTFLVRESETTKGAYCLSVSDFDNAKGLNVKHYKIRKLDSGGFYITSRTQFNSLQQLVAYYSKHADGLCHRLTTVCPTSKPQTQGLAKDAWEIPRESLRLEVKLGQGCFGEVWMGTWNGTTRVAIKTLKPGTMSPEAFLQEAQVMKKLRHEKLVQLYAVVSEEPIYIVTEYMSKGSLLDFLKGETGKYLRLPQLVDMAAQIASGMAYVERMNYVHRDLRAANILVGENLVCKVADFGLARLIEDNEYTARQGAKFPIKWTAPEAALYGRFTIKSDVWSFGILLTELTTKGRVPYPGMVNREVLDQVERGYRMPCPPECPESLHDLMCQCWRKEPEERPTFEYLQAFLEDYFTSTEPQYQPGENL", "experiment": "Millipore Kinase Profiler, single concentration", "assay_type": "biochemical", "conditions": "duplicate assay points, read-out: % residual activity", "description": "as §4"}}, "note": "Entries after “also recorded” stand apart in the source; their conditions may differ.", "data": [{"compound": "N#Cc1c[nH]c2nc(N)nc(-c3ccc(S(N)(=O)=O)cc3)c12", "note": "[Compound 48, 4-(2-Amino-5-cyano-7H-pyrrolo[2,3-d]pyrimidin-4-yl)benzenesulfonamide]", "values": [{"measurement": "inhibition of TNFα-stimulated IκBα degradation", "setting": "[1]", "value": "inhibited; also recorded: small effect"}, {"measurement": "inhibition of TNFα-stimulated p65 (Ser536) phosphorylation", "setting": "[2]", "value": "inhibited; also recorded: small effect"}, {"measurement": "effect on NF-κB transcriptional activity", "setting": "[3]", "value": "abolished transcriptional activity"}, {"measurement": "% stim", "setting": "[3]; Il-1β+DMSO = 100%", "value": "−40.9 ± 4.6", "unit": "%"}, {"measurement": "remaining activity at 10 µM", "setting": "CDK2/cyclinA(h)", "value": 20, "unit": "%"}, {"measurement": "remaining activity at 10 µM", "setting": "CHK2(h)", "value": 17, "unit": "%"}, {"measurement": "remaining activity at 10 µM", "setting": "CaMKIV(h)", "value": 37, "unit": "%"}, {"measurement": "remaining activity at 10 µM", "setting": "DAPK1(h)", "value": 99, "unit": "%"}, {"measurement": "remaining activity at 10 µM", "setting": "EGFR(h)", "value": 108, "unit": "%"}, {"measurement": "remaining activity at 10 µM", "setting": "EphB4(h)", "value": 56, "unit": "%"}, {"measurement": "remaining activity at 10 µM", "setting": "GSK3β(h)", "value": 16, "unit": "%"}, {"measurement": "remaining activity at 10 µM", "setting": "JAK2(h)", "value": 29, "unit": "%"}, {"measurement": "remaining activity at 10 µM", "setting": "PKBα(h)", "value": 93, "unit": "%"}, {"measurement": "remaining activity at 10 µM", "setting": "PKCη(h)", "value": 53, "unit": "%"}, {"measurement": "remaining activity at 10 µM", "setting": "PKCμ(h)", "value": 10, "unit": "%"}, {"measurement": "remaining activity at 10 µM", "setting": "PRK2(h)", "value": 31, "unit": "%"}, {"measurement": "remaining activity at 10 µM", "setting": "Rsk1(h)", "value": 39, "unit": "%"}, {"measurement": "remaining activity at 10 µM", "setting": "TBK1(h)", "value": 54, "unit": "%"}, {"measurement": "remaining activity at 10 µM", "setting": "TrkB(h)", "value": 31, "unit": "%"}, {"measurement": "remaining activity at 10 µM", "setting": "ZAP-70(h)", "value": 138, "unit": "%"}, {"measurement": "remaining activity at 10 µM", "setting": "cSRC(h)", "value": 76, "unit": "%"}]}]}
